Assay results reported in patent publication US20110256068A1, “CONTRAST MEDIA COMPOSITIONS” (priority 2009, published 2011).

Test: Viscosity at 20° C. by U-tube time of fall technique
Type: physicochemical
Conditions: 350 mgl/ml solution, 10 mM Tris, EDTA 0.1 mg/ml
Experimental: The obtained iodine concentration was 356 mgl/ml. The viscosity was determined to 28.7 mPas at 20° C. The osmolality was determined to 295 mOsm/kg.
a) Preparation of a 350 mgl/ml solution of IIIa containing 10 mM Tris and EDTA (0.1 mg/ml)
(§1) To a calibrated flask with a volume of 99.655 ml was added 71.174 g IIIa (water content 2.03%), 153 mg Trizma preset crystals (pH 7.3) and 10 mg EDTA disodium dihydrate followed by 67.330 g Milli-Q water. The mixture was brought to clear solution by intermittent agitation, gentle heating and sonication.
The clear solution with pH=6.95 was filtered through a Millipore Sterivex 0.22 um filter.
b) Preparation of a 350 mgl/ml solution of iopamidol containing 10 mM Tris and EDTA (0.1 mg/ml)
as §1, with “72.429” for “71.174”, “iopamidol” for “IIIa”, “1.7%), 157” for “2.03%), 153”, “66.309” for “67.330”
The clear solution with pH=6.85 was filtered through a Millipore Sterivex 0.22 um filter.
c) The two solutions from a) and b) were mixed in different proportions according to Table 1. After thorough mixing, the viscosity was determined at 20° C. using conventional U-tube time of fall technique.

Viscosity at 20° C. (0% IIIa / 100% iopamidol by volume) [mPas] | Viscosity at 20° C. (100% IIIa / 0% iopamidol by volume) [mPas] | Structure (SMILES)
15.8 |  | C[C@H](O)C(=O)Nc1c(I)c(C(=O)NC(CO)CO)c(I)c(C(=O)NC(CO)CO)c1I [iopamidol]
 | 42.9 | O=CN(CC(O)CN(C=O)c1c(I)c(C(=O)NCC(O)CO)c(I)c(C(=O)NCC(O)CO)c1I)c1c(I)c(C(=O)NCC(O)CO)c(I)c(C(=O)NCC(O)CO)c1I (centres unmarked) [IIIa, 5,5′-(2-hydroxypropane-1,3-diyl)bis(formylazanediyl)bis(N^1,N^3-bis(2,3-dihydroxypropyl)-2,4,6-triiodoisophthalamide)]
